Results on 33 compounds are retold here after ChEMBL document CHEMBL4038293, “Synthesis and SAR studies of 3,6-disubstituted indazole derivatives as potent hepcidin production inhibitors” (Bioorg Med Chem Lett, 2017).

Active and inactive are the calls of the source. No cut-off for these calls is given here.

Tested on in one data set: not listed separately
Briefly: Metabolic stability in mouse liver microsomes assessed as compound remaining at 0.5 mg/mL after 0.5 hrs. Format: ADME, microsome. The note with it: read-out: Stability.
As to `O=C(Nc1n[nH]c2cc(-c3ccc(O)cc3)ccc12)c1ccc(OCCN2CCOCC2)cc1`, the remaining at 0.5 h turned out to be 89%.

Tested on in another data set: not listed separately
Briefly: Cmax in C57BL/6J mouse at 30 mg/kg, ip. It is filed as ADME, organism-based. Also on record: dose 30 mg/kg, route intraperitoneal. The note with it: in vivo.
Turning to `O=C(Nc1n[nH]c2cc(-c3ccc(O)cc3)ccc12)c1ccc(OCCN2CCOCC2)cc1`, the Cmax (as a rule, the peak of the concentration-time curve) turned out to be 2640 ng/mL.

Tested on in the next data set: not listed separately
Briefly: Tmax in C57BL/6J mouse at 30 mg/kg, ip. Format: ADME, organism-based. The note with it: in vivo.
Turning to `O=C(Nc1n[nH]c2cc(-c3ccc(O)cc3)ccc12)c1ccc(OCCN2CCOCC2)cc1`, the Tmax (as a rule, the time at which the peak concentration occurs) is 1.33 h.

Another data set concerns Mus musculus. Briefly: Anti-inflammatory activity in C57BL/6J mouse assessed as reduction in IL-6 induced serum hepcidin level at 30 mg/kg, ip pretreated for 30 mins followed by IL-6 challenge measured after 4 hrs.
Details: not given
It is filed as functional, organism-based.
On to `O=C(Nc1n[nH]c2cc(-c3ccc(O)cc3)ccc12)c1ccc(OCCN2CCOCC2)cc1`, for which the result was Active.

Another data set is filed under the species Homo sapiens. Briefly: Inhibition of BMP6/hemojuvelin signalling pathway in human HepG2 cells assessed as reduction in hepcidin mRNA expression at 30 uM. It is filed as cell-based.
Details: not given
Take `O=C(Nc1n[nH]c2cc(-c3ccccc3)ccc12)C1CC1`: the inhibition (commonly the relative decrease from the control value, in per cent) turned out to be 23%.

For `O=C(Nc1n[nH]c2ccc(-c3ccccc3)cc12)C1CC1`, the inhibition is -4%. On to `O=C(Nc1n[nH]c2cccc(-c3ccccc3)c12)C1CC1`, for which the inhibition came out at 8%.

Tested on in another data set: not listed separately
Briefly: AUC in C57BL/6J mouse at 30 mg/kg, ip. Format: ADME, organism-based. The note with it: in vivo.
With `O=C(Nc1n[nH]c2cc(-c3ccc(O)cc3)ccc12)c1ccc(OCCN2CCOCC2)cc1`, the AUC (usually the area under the concentration-time curve, a measure of exposure) was 6930 ng·h/mL.

Tested on in a further data set: not listed separately
Briefly: Inhibition of BMP6/hemojuvelin signalling pathway in human HepG2 cells assessed as reduction in hepcidin mRNA expression. It is filed as cell-based.
Details: not given
On to `COc1cccc(C(=O)Nc2n[nH]c3cc(-c4ccc(O)cc4)ccc23)c1`, for which the half-maximal inhibitory concentration (IC50) – broadly, the concentration that inhibits the measured activity by half – is 700 nM. With `Nc1ccc(-c2ccc3c(NC(=O)C4CC4)n[nH]c3c2)cc1`, the IC50 worked out at 4500 nM. Regarding `COc1ccccc1C(=O)Nc1n[nH]c2cc(-c3ccc(O)cc3)ccc12`, the 50% inhibitory concentration (IC50) was more than 30000 nM. Still for that read-out and setting: the same measure for `O=S(=O)(Nc1n[nH]c2cc(-c3ccc(O)cc3)ccc12)C1CC1`: more than 10000 nM. The same measure, in the same setting: then `O=C(Nc1n[nH]c2cc(-c3ccc(O)cc3)ccc12)c1ccc(OCCN2CCCCC2)cc1`, with 120 nM; and `Nc1n[nH]c2cc(-c3ccc(O)cc3)ccc12`, with 1000 nM. The same measure, in the same setting: the same measure for `O=C(Nc1n[nH]c2cc(-c3ccc(O)cc3)ccc12)C1CC1`: 400 nM; for `CS(=O)(=O)Nc1ccc(-c2ccc3c(NC(=O)C4CC4)n[nH]c3c2)cc1`: more than 30000 nM.

As to `O=C(Nc1n[nH]c2ccc(-c3ccc4c(c3)CNC4)cc12)C1CC1`, the IC50 came out at 3100 nM. On the same count and under the same terms, the same measure for `O=C(Nc1n[nH]c2cc(-c3cccc(O)c3)ccc12)C1CC1`: 4900 nM. Regarding `O=C(Nc1n[nH]c2cc(-c3ccc(O)cc3)ccc12)NC1CC1`, the IC50 worked out at 940 nM. The same measure, in the same setting: then `O=C(Nc1[nH]nc2cc(-c3ccc(O)nc3)ccc12)C1CC1`, with more than 30000 nM. In the case of `CC(=O)Nc1n[nH]c2cc(-c3ccc(O)cc3)ccc12`, the IC50 came out at 1100 nM. For `Oc1ccc(-c2ccc3cn[nH]c3c2)cc1`, the IC50 is more than 3000 nM.

As for `O=C(O)c1ccc(-c2ccc3c(NC(=O)C4CC4)n[nH]c3c2)cc1`, the IC50 is more than 10000 nM. On the same count and under the same terms, then `COC(=O)c1ccc(C(=O)Nc2n[nH]c3cc(-c4ccc(O)cc4)ccc23)cc1`, with 1100 nM; and `CN(C)c1ccc(C(=O)Nc2n[nH]c3cc(-c4ccc(O)cc4)ccc23)cc1`, with 330 nM.

Turning to `Oc1ccc(-c2ccc3c(NCC4CC4)n[nH]c3c2)cc1`, the IC50 was found to be 1600 nM. As for `O=C(NC1CC1)c1n[nH]c2cc(-c3ccc(O)cc3)ccc12`, the concentration for half-maximal inhibition (IC50) amounted to 4200 nM. The same measure, in the same setting: then `COc1ccc(C(=O)Nc2n[nH]c3cc(-c4ccc(O)cc4)ccc23)cc1`, with 420 nM.

`O=C(Nc1n[nH]c2cc(-c3ccc(O)cc3)ccc12)c1ccccc1`: the IC50 was found to be 470 nM. On the same count and under the same terms, then `O=C(Nc1n[nH]c2cc(-c3ccc(CO)cc3)ccc12)C1CC1`, with 1400 nM; and `CN(C)CCOc1ccc(C(=O)Nc2n[nH]c3cc(-c4ccc(O)cc4)ccc23)cc1`, with 160 nM.

`O=C(Nc1n[nH]c2cc(-c3ccccc3O)ccc12)C1CC1`: the half-inhibitory concentration (IC50) was more than 30000 nM. Regarding `O=C(Nc1n[nH]c2cc(-c3ccc(O)cc3)ccc12)C1CCCCC1`, the IC50 amounted to 930 nM.

`O=C(Nc1n[nH]c2cc(Cc3ccc(O)cc3)ccc12)C1CC1`: the half-maximal inhibitory concentration (IC50) was more than 30000 nM. Still for that read-out and setting: the same measure for `O=C(Nc1n[nH]c2cc(-c3ccc(O)cc3)ccc12)c1ccc(Cl)cc1`: 980 nM; for `CN1CCN(c2ccc(C(=O)Nc3n[nH]c4cc(-c5ccc(O)cc5)ccc34)cc2)CC1`: 85 nM; for `O=C(Nc1n[nH]c2cc(-c3ccc(O)cc3)ccc12)c1ccc(OCCN2CCOCC2)cc1`: 130 nM.

For the compound `O=C(Nc1n[nH]c2cc(C3=CCC(O)CC3)ccc12)C1CC1` (centres undefined), the IC50 was more than 30000 nM.

Tested on in a further data set: not listed separately
Briefly: Lipophilicity, log D of the compound. It is filed as physicochemical. The note with it: octanol/water.
As for `O=C(Nc1n[nH]c2cc(-c3ccc(O)cc3)ccc12)c1ccc(OCCN2CCOCC2)cc1`, the logD (as a rule, the decadic logarithm of the distribution of all forms, ionised or not, between an organic phase and buffer at a given pH) is 3.4.
